Data: patent publication US7279542B2, “Polymeric particles and fragrance delivery systems” (Firmenich SA, priority 2003, dated 2007)
Like-named read-outs stand apart in the source and are kept apart here.

Tests used:
[1] = Swelling of micro-capsules with single fragrance raw materials (mass fraction in swollen micro-capsule); type: physicochemical; details: micro-capsules of Example 4 swelled with excess raw material, 1 to 3 days
Source text: The capsules were allowed to swallow with an excess of the model-perfume (see Example 1) during 1 to 3 days. The swelled micro-particles were then separated from the remaining perfume by filtration and washed with ethanol. This experiment was repeated for various raw materials having various chemical functionalities or various polarities (i.e. LogP, P being the partition coefficient between octanol and water).

[2] = LogP of fragrance raw materials (partition coefficient between octanol and water); type: physicochemical
[3] = P = partition coefficient between octanol and water, read-out: LogP

Row | Fragrance mass fraction in the final swollen micro-capsule weight [%] [1] | logP [2, 3] | logP [2] | SMILES
1 | 49.8% | 1.57 |  | CC(=O)OCc1ccccc1 [Benzyl acetate]
2 | 36.2% | 3.59 |  | CC(C)=CCC/C(C)=C/CO [Geraniol]
3 | 50.3% |  | 5.37 | O=C1CCCCCCCCC/C=C/CCCO1 [Habanolide ®, pentadecenolide]
4 | 50.7% | 4.91 |  | CCCCCCOC(=O)c1ccccc1O [Hexyl salicylate]
